Our source for the Survival values is ChEMBL document CHEMBL4665541, “Search for new therapeutic options for the uncommon pathogen Mycobacterium chimaera: an open drug discovery approach” (Lancet Microbe, 2021).

Common to all, as to format: functional, organism-based
Common to all, as to set-up: conc 20 uM

The subject of test [1] is Mycobacterium tuberculosis. Nature of the test: (§1) Inhibition of mycobacterial growth using the resazurin microtitre cell viability assay (REMA), compounds at final concentration of 20 µM (2% v/v DMSO). Hits were classed as compounds that inhibited bacterial growth by 70% or more compared to drug-free controls. Conditions: H37Rv. Background: Resazurin is reduced to fluorescent resorufin, in cell work by metabolically active cells.

The test system of test [2] is Mycobacteroides abscessus. Described as §1. Conditions: ATCC19977.
Test [3] relates to Mycobacterium intracellulare subsp. chimaera. The test is described as §1. The note with it: NCTC13781.

As for MMV007638, the Survival in test [1] was 100%; in test [2], 123%; in test [3], 113%.

For the substance MMV272144, the Survival in test [1] is 85.8%; in test [2], 110%; in test [3] it was 105%.

On to MMV026020, for which the Survival was 102% in test [1], 113% in test [2] and 105% in test [3].

Turning to MMV676383, the Survival in test [1] is 1.2%; in test [2] it was 110%; in test [3], 79.3%.

In the case of MMV676468, the Survival was 10.5% in test [1], 103% in test [2] and 96.9% in test [3].

Consider MMV688467, for which the results for the Survival in test [1], in test [2] and in test [3] were 95.5%, 118% and 111%, respectively.

In the case of MMV020321, the values for the Survival in test [1], in test [2] and in test [3] were 90.7%, 115% and 91.7%, respectively.

On to MMV676377, for which the figures for the Survival in test [1], in test [2] and in test [3] were 50.2%, 108% and 77.7%, respectively.

For the substance MMV688411, the Survival is 90% in test [1], 114% in test [2] and 89.9% in test [3].

Consider MMV688509, for which the Survival in test [1] was 91.6%; in test [2] it was 119%; in test [3], 110%.

Take MMV020136: the Survival is 88.7% in test [1], 129% in test [2] and 88.5% in test [3].

Take MMV032967: the Survival in test [1] was 92.6%; in test [2], 104%; in test [3], 87.8%.

For the substance MMV1110498, the Survival in test [1] was 97.9%; in test [2] it was 111%; in test [3], 102%.

Consider MMV009135, for which the Survival in test [1] was 93.6%; in test [2], 101%; in test [3], 104%.

Regarding MMV688939, the values for the Survival in test [1], in test [2] and in test [3] were 48.9%, 97.6% and 95.4%, respectively.

MMV676064: the Survival in test [1] is 96.8%; in test [2], 117%; in test [3], 102%.

For the substance MMV675997, the Survival in test [1] was 99.4%; in test [2] it was 105%; in test [3], 98.5%.

For the substance MMV022029, the Survival was 90.8% in test [1], 118% in test [2] and 99.1% in test [3].

For MMV000062, the Survival in test [1] is 18.8%; in test [2], 109%; in test [3], 85.2%.

As for MMV676603, the Survival was 38.4% in test [1], 112% in test [2] and 101% in test [3].

With MMV676388, the Survival is 87.4% in test [1], 110% in test [2] and 101% in test [3].

MMV687251: the Survival in test [1] is 5.28%; in test [2], 116%; in test [3], 88.3%.

Regarding MMV688942, the Survival in test [1] is 85.1%; in test [2], 112%; in test [3], 98.6%.

For the substance MMV024829, the Survival in test [1] was 88.9%; in test [2], 119%; in test [3], 103%.

Take MMV020152: the Survival in test [1] is 78.2%; in test [2], 118%; in test [3], 91.2%.

As for MMV688543, the Survival in test [1] was 89%; in test [2], 101%; in test [3], 97.2%.

For the substance MMV661713, the Survival in test [1] was 25.2%; in test [2], 112%; in test [3], 47.5%.

As to MMV228911, the Survival is 114% in test [1], 97.2% in test [2] and 89.5% in test [3].

For MMV023370, the Survival in test [1] was 102%; in test [2] it was 109%; in test [3], 107%.

In the case of MMV676260, the Survival is 84.8% in test [1], 108% in test [2] and 97.1% in test [3].

For MMV688279, the Survival is 32.5% in test [1], 110% in test [2] and 114% in test [3].

On to MMV002529, for which the results for the Survival in test [1], in test [2] and in test [3] were 92%, 120% and 99.8%, respectively.

MMV676389: the Survival in test [1] is 51.7%; in test [2] it was 113%; in test [3], 98.7%.

In the case of MMV676182, the Survival in test [1] is 91.4%; in test [2], 102%; in test [3] it was 104%.

Consider MMV688888, for which the figures for the Survival in test [1], in test [2] and in test [3] were 23.3%, 95.5% and 37.8%, respectively.

Turning to MMV000023, the Survival was 84.7% in test [1], 109% in test [2] and 92.8% in test [3].

Regarding MMV393995, the Survival in test [1] is 46.2%; in test [2] it was 93.9%; in test [3], 95.8%.

On to MMV020289, for which the Survival in test [1] is 86.3%; in test [2] it was 113%; in test [3], 103%.

As for MMV688553, the Survival was 54% in test [1], 105% in test [2] and 91.3% in test [3].

As to MMV687180, the figures for the Survival in test [1], in test [2] and in test [3] were 74.6%, 107% and 105%, respectively.

Turning to MMV688554, the Survival was 76% in test [1], 115% in test [2] and 102% in test [3].

As to MMV006239, the Survival in test [1] was 86.9%; in test [2], 112%; in test [3] it was 94.8%.

MMV023233: the Survival was 89.1% in test [1], 106% in test [2] and 90.8% in test [3].

In the case of MMV553002, the Survival is 34.8% in test [1], 113% in test [2] and 66.4% in test [3].

MMV676520: the figures for the Survival in test [1], in test [2] and in test [3] were 43.4%, 100% and 85.8%, respectively.

Regarding MMV688796, the Survival in test [1] is 99.3%; in test [2] it was 103%; in test [3], 93.4%.

As to MMV676445, the Survival is 30% in test [1], 111% in test [2] and 74.2% in test [3].

Consider MMV687170, for which the Survival was 52.7% in test [1], 114% in test [2] and 89.9% in test [3].

MMV019189: the Survival is 77% in test [1], 97.2% in test [2] and 97.4% in test [3].

Turning to MMV634140, the Survival in test [1] is 81%; in test [2], 110%; in test [3] it was 84%.

On to MMV688938, for which the figures for the Survival in test [1], in test [2] and in test [3] were 119%, 118% and 88.3%, respectively.

As to MMV024443, the Survival in test [1] is 102%; in test [2], 94.5%; in test [3], 101%.

For MMV024114, the Survival in test [1] is 126%; in test [2] it was 121%; in test [3] it was 106%.

For the substance MMV392832, the Survival in test [1] was 75.4%; in test [2], 106%; in test [3], 93.8%.

For the substance MMV020710, the Survival is 86.9% in test [1], 123% in test [2] and 95.7% in test [3].

Consider MMV688330, for which the Survival in test [1] was 99.6%; in test [2], 99.9%; in test [3] it was 103%.

On to MMV676509, for which the figures for the Survival in test [1], in test [2] and in test [3] were 85.9%, 113% and 89.8%, respectively.

MMV676384: the Survival is 54.5% in test [1], 109% in test [2] and 101% in test [3].

MMV688410: the Survival was 95.3% in test [1], 105% in test [2] and 105% in test [3].

Turning to MMV688552, the Survival in test [1] is 81%; in test [2], 107%; in test [3], 103%.

In the case of MMV010764, the Survival in test [1] was 88.8%; in test [2], 101%; in test [3] it was 94.1%.

For MMV676599, the Survival in test [1] is 88.2%; in test [2] it was 115%; in test [3], 102%.

As for MMV020081, the Survival in test [1] was 89.4%; in test [2] it was 118%; in test [3] it was 87.7%.

In the case of MMV688854, the values for the Survival in test [1], in test [2] and in test [3] were 111%, 114% and 111%, respectively.

MMV023227: the Survival is 85.3% in test [1], 106% in test [2] and 87.2% in test [3].

In the case of MMV687762, the Survival in test [1] is 95.8%; in test [2] it was 112%; in test [3], 101%.

With MMV020120, the figures for the Survival in test [1], in test [2] and in test [3] were 94.3%, 122% and 104%, respectively.

With MMV676386, the Survival is 24% in test [1], 107% in test [2] and 90.1% in test [3].

On to MMV688371, for which the values for the Survival in test [1], in test [2] and in test [3] were 111%, 119% and 107%, respectively.

Take MMV688178: the values for the Survival in test [1], in test [2] and in test [3] were 103%, 107% and 97.1%, respectively.

With MMV688934, the Survival is 101% in test [1], 112% in test [2] and 104% in test [3].

Regarding MMV676398, the Survival is 92% in test [1], 111% in test [2] and 99.3% in test [3].

With MMV688755, the values for the Survival in test [1], in test [2] and in test [3] were 7.68%, 111% and 107%, respectively.

Consider MMV687796, for which the Survival in test [1] was 9.75%; in test [2], 99%; in test [3] it was 102%.

As to MMV676470, the values for the Survival in test [1], in test [2] and in test [3] were 90.7%, 115% and 100%, respectively.

Turning to MMV637229, the Survival in test [1] was 87%; in test [2] it was 112%; in test [3], 96.4%.
